The record followed here is patent US20250074871A1, “PHENETHYLAMINES AND METHODS OF PREPARATION THEREOF” (priority 2022, published 2025).

The target in one series is T1, 5-HT2A receptor (Homo sapiens, UniProt P28223).
T1 construct: expressed in transfected cells; host or cells: HEK293T
In words: 5-HT2A Gq dissociation BRET functional assay. The class given is cell-based. The note with it: for 5-HT2A BRET Eff %: normalized to % 5-HT stimulation. A general note: Bioluminescence resonance energy transfer reports proximity on the nanometre scale.

In another series the target is T2, 5-HT2B receptor (Homo sapiens, UniProt P41595).
T2 construct: expressed in transfected cells; host or cells: HEK293T
T2 sequence (P41595 whole entry): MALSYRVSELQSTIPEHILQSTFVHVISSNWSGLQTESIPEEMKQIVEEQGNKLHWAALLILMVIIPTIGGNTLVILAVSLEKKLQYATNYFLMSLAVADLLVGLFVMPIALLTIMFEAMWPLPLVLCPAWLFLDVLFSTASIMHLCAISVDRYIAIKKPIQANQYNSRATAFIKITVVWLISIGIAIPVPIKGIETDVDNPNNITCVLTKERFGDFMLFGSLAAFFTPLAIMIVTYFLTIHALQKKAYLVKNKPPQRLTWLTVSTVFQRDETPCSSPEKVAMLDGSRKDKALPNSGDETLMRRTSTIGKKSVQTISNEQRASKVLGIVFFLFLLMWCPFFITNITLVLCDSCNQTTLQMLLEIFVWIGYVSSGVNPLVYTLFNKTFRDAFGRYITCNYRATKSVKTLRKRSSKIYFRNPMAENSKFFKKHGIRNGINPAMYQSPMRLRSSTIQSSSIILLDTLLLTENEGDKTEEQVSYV
The series is described as follows: 5-HT2B Gq dissociation BRET functional assay. In kind it is cell-based. As to conditions: for EC50: 5-HT2B BRET EC50 (nM), at least three replicate trials; for 5-HT2B BRET Eff %: normalized to % 5-HT stimulation.

The target in the next series is T3, 5-HT2C receptor (Homo sapiens, UniProt P28335).
T3 construct: expressed in transfected cells; host or cells: HEK293T
T3 sequence (P28335 33-458): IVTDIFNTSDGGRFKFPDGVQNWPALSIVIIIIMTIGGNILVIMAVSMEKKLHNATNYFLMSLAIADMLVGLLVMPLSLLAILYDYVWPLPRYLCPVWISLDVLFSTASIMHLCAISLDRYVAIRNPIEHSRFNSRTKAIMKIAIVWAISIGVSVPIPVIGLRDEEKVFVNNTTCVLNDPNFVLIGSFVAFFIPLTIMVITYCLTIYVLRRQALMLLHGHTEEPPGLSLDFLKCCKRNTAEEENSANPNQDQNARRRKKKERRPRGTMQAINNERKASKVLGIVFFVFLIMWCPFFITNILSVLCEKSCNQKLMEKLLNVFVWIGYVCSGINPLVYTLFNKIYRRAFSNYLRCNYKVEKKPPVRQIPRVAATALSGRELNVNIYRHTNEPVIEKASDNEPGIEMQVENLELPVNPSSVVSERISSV
In words: cell-based. In kind it is cell-based. As to conditions: Table 2; for EC50: at least three replicate trials, read-out: 5-HT2C BRET EC50; for 5-HT2C BRET Eff %: normalized to % 5-HT stimulation.

The target of series [1] is T4, human ether-a-go-go-related gene (hERG) K+ channel (Homo sapiens, UniProt Q12809).
T4 construct: Eurofins
T4 sequence (Q12809 whole entry): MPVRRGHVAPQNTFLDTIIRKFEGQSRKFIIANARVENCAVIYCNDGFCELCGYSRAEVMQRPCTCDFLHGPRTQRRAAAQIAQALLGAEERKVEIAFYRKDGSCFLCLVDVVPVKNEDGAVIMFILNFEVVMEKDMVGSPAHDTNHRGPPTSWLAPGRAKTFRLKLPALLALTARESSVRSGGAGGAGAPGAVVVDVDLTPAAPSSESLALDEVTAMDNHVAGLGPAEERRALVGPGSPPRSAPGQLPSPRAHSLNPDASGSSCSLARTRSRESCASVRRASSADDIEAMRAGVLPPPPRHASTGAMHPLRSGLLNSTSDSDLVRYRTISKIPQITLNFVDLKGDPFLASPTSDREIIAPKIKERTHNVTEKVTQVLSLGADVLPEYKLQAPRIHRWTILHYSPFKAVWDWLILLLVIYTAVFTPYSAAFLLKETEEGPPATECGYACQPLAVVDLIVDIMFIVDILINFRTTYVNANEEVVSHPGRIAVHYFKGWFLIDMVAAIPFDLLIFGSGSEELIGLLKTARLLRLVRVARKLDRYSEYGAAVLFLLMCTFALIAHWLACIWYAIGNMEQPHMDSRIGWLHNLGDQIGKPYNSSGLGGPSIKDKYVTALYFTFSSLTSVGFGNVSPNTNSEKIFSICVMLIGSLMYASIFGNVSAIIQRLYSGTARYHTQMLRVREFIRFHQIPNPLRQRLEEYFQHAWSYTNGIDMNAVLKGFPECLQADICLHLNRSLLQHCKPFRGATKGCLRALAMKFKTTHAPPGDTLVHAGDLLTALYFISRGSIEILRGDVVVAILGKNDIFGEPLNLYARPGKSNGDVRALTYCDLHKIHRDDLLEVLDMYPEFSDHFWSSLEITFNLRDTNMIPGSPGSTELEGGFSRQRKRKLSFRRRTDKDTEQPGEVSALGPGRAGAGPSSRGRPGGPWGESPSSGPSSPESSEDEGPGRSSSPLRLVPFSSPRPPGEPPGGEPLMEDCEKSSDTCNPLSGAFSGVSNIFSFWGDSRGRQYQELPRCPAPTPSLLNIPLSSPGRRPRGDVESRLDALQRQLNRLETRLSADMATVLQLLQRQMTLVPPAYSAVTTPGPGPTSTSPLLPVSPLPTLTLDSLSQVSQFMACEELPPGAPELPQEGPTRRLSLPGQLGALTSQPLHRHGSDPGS
The series is described as follows: Eurofins hERG Qube APC Assay. As to conditions: for IC50 (hERG)/EC50 (5-HT2A) ratio: Table 4. The class given is cell-based. The text has this: As used herein and unless otherwise specified, the term “hERG risk” refers to the risk of a compound potentially inhibiting the human ether-a-go-go-related gene (hERG) K^+ channel, thereby leading to QT prolongation.
As a result of, many compounds disclosed in Table 1 and Table 2 were screened for the potential of “hERG risk” using pharmacological assays (e.g. Eurofins™ hERG Qube APC Assay). […].
For orientation: Block of hERG is tested as a sign of cardiac risk.

The subject of another series is mice. In words: head-twitch response (HTR) in mice. The class given is in vivo, male C57BL/6J mice. The note with it: Mus musculus; mice. Here is the method:
As used herein and unless otherwise specified, the term “HTR” refers to head-twitch response, which is a measurement of 5-HT2A activation in vivo.
As used herein and unless otherwise specified, the term “mice” refers to male C57BL/6J mice (6-8 weeks old).
HTR was assessed using a head-mounted neodymium magnet and a magnetometer detection coil, as described in Halberstadt et al., Psychopharmacology (Berl.), 2013, 227(4): 727-739. Table 8 below summarizes the ED50 in head twitch in mice of various compounds disclosed herein as compared to psilocybin. FIG. 3 illustrates the HTR relative to dose for compound 109: […]

For the next series, the target named is T5, 5-HT1A (Homo sapiens, UniProt P08908).
T5 sequence (P08908 1-422): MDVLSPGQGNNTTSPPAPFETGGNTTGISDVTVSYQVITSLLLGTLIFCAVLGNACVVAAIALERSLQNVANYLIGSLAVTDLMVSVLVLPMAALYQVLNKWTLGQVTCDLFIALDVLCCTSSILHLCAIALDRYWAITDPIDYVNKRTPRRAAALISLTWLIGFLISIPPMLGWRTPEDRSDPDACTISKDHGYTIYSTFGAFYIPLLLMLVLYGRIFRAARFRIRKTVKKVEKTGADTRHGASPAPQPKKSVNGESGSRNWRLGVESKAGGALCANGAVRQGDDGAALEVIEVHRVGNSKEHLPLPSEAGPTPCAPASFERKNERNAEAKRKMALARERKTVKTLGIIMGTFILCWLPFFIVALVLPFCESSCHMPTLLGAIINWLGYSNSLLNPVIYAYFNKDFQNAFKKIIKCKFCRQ
In words: 5-HT receptor activity panel (Table 3). The class given is cell-based.

The next series concerns the target 5-HT1B (Homo sapiens, UniProt P28222). In words: 5-HT receptor activity panel (Table 3). In kind it is cell-based.
The target of a further series is 5-HT1D (Homo sapiens, UniProt P28221). The series is described as follows: 5-HT receptor activity panel (Table 3). In kind it is cell-based.
Chain of 5-HT1D (P28221 whole entry, species assumed): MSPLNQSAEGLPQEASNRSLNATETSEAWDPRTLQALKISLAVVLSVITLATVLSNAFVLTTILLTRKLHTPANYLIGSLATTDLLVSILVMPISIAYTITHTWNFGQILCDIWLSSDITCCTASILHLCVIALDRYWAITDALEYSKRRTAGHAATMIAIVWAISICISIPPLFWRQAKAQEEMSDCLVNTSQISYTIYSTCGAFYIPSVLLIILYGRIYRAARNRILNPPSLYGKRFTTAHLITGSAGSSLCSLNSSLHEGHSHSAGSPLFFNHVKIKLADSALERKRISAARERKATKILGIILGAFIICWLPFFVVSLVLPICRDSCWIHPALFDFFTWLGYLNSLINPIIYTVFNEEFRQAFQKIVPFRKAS
The target of a further series is 5-HT1E (Homo sapiens, UniProt P28566). The series is described as follows: 5-HT receptor activity panel (Table 3). In kind it is cell-based.
Chain of 5-HT1E (P28566 whole entry, species assumed): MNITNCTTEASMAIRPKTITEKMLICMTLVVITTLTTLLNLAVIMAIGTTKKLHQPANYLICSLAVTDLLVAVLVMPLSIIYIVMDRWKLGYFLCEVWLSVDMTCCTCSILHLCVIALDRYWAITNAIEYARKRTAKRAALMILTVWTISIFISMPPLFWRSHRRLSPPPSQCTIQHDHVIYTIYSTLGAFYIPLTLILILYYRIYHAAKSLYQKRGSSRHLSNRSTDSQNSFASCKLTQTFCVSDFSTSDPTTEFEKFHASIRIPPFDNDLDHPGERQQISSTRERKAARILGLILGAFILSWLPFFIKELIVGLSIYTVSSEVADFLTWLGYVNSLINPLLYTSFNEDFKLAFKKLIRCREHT
The target of a further series is T6, 5-HT1F (Homo sapiens, UniProt P30939).
T6 sequence (P30939 1-366): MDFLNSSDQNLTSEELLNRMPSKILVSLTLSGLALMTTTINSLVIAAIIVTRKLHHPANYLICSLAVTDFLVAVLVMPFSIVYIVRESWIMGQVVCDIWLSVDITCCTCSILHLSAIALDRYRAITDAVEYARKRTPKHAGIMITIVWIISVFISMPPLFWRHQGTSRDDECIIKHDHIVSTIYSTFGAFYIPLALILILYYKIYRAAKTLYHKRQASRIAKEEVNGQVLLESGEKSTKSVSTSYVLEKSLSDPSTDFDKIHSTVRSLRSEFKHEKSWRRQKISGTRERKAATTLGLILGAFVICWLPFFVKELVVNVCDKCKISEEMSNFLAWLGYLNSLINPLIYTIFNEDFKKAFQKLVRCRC
The series is described as follows: 5-HT receptor activity panel (Table 3). The class given is cell-based. The note with it: Table 3.

The target of a further series is 5-HT4 (Homo sapiens, UniProt Q13639). The series is described as follows: 5-HT receptor activity panel (Table 3). In kind it is cell-based.
Chain of 5-HT4 (Q13639 whole entry, species assumed): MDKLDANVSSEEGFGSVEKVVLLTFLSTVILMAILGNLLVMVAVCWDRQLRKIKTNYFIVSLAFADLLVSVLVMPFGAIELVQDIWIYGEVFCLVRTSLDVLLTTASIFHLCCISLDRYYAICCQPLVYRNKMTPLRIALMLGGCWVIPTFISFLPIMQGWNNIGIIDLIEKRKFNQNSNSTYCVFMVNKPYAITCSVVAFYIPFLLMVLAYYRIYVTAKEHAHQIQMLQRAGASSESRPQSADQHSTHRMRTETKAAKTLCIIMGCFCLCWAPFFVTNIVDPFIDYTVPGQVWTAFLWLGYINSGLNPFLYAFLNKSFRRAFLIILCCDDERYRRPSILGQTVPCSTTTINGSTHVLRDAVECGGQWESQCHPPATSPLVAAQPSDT
The next series deals with 5-HT5A (Homo sapiens, UniProt P47898). In words: 5-HT receptor activity panel (Table 3). In kind it is cell-based.
Chain of 5-HT5A (P47898 whole entry, species assumed): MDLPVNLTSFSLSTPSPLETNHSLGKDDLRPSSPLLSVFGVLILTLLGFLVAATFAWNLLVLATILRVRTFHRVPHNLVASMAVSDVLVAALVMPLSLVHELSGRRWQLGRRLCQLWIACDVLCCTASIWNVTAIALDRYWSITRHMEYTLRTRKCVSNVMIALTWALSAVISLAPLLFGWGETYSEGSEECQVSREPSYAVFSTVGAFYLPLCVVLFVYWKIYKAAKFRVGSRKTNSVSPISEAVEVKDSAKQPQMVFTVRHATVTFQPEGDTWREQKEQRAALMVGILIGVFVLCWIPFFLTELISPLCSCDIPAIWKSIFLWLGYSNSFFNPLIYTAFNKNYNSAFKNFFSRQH
A further series deals with 5-HT6 (Homo sapiens, UniProt P50406). In words: 5-HT receptor activity panel (Table 3). As to conditions: Table 3. The class given is cell-based.
Chain of 5-HT6 (P50406 whole entry, species assumed): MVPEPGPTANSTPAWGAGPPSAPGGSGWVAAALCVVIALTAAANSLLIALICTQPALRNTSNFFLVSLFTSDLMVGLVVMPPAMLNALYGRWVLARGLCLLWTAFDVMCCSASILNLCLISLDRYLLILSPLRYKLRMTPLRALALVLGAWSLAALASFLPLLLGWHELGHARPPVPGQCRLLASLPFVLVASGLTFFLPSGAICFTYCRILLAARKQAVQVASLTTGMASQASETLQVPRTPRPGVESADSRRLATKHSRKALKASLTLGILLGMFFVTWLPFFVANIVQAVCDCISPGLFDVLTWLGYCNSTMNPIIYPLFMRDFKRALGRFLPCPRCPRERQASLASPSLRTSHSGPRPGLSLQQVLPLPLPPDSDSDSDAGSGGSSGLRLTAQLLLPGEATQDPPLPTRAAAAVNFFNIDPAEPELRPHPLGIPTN
Another series deals with 5-HT7 (Homo sapiens, UniProt P34969). The series is described as follows: 5-HT receptor activity panel (Table 3). The class given is cell-based.
Chain of 5-HT7 (P34969 whole entry, species assumed): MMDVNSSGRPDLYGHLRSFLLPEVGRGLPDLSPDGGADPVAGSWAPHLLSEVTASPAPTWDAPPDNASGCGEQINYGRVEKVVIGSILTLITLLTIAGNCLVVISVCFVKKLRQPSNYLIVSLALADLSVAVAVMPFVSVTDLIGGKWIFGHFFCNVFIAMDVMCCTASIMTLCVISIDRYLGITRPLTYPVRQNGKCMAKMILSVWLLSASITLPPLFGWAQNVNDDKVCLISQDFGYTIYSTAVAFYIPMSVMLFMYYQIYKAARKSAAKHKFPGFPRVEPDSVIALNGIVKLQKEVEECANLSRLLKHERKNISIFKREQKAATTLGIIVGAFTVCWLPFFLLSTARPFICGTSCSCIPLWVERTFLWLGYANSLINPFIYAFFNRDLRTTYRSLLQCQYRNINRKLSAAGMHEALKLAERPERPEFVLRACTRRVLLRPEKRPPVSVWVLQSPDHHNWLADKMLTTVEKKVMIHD
Where [2] appears, read: 5-HT2A BRET EC50 (nM), Table 2, at least three replicate trials.
[3] abbreviates: EC50 BRET 2A, Table 4, unit inferred.

T1 sequence (P28223 whole entry): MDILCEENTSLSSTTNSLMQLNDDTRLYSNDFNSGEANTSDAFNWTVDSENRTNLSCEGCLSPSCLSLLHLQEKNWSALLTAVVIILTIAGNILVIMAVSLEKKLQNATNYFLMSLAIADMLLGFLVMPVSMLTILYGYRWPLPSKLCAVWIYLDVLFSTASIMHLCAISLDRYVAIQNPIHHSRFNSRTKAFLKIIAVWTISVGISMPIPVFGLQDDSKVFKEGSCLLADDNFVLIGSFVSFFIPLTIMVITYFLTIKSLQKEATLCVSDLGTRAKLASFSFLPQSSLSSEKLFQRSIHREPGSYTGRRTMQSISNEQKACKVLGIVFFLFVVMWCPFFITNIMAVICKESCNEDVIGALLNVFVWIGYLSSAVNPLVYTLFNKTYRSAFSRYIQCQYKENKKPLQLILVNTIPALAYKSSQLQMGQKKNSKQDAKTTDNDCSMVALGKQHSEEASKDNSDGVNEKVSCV
Chain of 5-HT1B (P28222 whole entry, species assumed): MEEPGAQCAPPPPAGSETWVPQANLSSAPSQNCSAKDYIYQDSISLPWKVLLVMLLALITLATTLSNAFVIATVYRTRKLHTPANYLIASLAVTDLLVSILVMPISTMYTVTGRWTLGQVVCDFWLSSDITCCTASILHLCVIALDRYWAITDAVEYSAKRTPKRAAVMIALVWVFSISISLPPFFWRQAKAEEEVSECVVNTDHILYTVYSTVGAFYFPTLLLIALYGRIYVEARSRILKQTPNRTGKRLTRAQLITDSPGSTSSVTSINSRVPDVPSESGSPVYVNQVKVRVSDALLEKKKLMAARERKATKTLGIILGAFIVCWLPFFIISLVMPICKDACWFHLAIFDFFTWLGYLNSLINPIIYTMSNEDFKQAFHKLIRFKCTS

Turning to `COc1cc(C#N)ccc1CCNCc1ccccc1OC` [Cpd #27], on 5-HT2A receptor (setting [2]), a half-maximal response (EC50) required 4.2 nM. At 5-HT2A receptor (setting [3]), the EC50 (commonly the concentration giving half of the maximal effect) came out at 4.2 nM. For the same compound, at 5-HT2A receptor (Table 2), the “5-HT2A BRET Eff %” value is listed as 96%. Besides, on 5-HT2B receptor (Table 2), the EC50 was 423 nM and the “5-HT2B BRET Eff %” value was 66%. Further, on 5-HT2C receptor, the EC50 came to 15.9 nM and the “5-HT2C BRET Eff %” value was 109%. Moreover, in [1], the IC50 (commonly the concentration at which inhibition is half-maximal) is 2000 nM and the “IC50 (hERG)/EC50 (5-HT2A) ratio” value came to 476. The 50% effect level in the series on mice (ED50) was put at a dose of 3 mg/kg.

In turn, `COc1cc(C#N)ccc1CCNCc1ccccc1SC` [Cpd #108] registered an EC50 on 5-HT2A receptor (setting [2]) of 2.4 nM. The same compound displayed a concentration for a half-maximal effect (EC50) on 5-HT2A receptor (setting [3]) of 2.4 nM. Moreover, the “5-HT2A BRET Eff %” value on 5-HT2A receptor (Table 2) amounted to 99%. Further, at 5-HT2B receptor (Table 2), the EC50 turned out to be 2380 nM and the “5-HT2B BRET Eff %” value is given as 128%. Moreover, on 5-HT2C receptor, the EC50 amounted to 16 nM and the “5-HT2C BRET Eff %” value is 103%. Besides, in series [1], the midpoint of inhibition, the IC50, lay at 1780 nM and the “IC50 (hERG)/EC50 (5-HT2A) ratio” value came to 742. Besides, the 50% effect level with mice (ED50) was put at a dose of 7.23 mg/kg.

As to `COc1cc(C#N)c(F)cc1CCNCc1ccccc1O` [Cpd #117], the concentration giving a half-maximal response (EC50) at 5-HT2A receptor (setting [2]) was 3.8 nM; at 5-HT2A receptor (setting [3]) it was 3.8 nM; at 5-HT2B receptor (Table 2), 4360 nM; at 5-HT2C receptor it was 40.8 nM. The “5-HT2A BRET Eff %” value on 5-HT2A receptor (Table 2) is 97%. At 5-HT2B receptor (Table 2), the “5-HT2B BRET Eff %” value is 68%. The “5-HT2C BRET Eff %” value at 5-HT2C receptor is given as 115%. Besides, the IC50 in [1] came to 900 nM. Moreover, the “IC50 (hERG)/EC50 (5-HT2A) ratio” value in series [1] amounted to 237. For the same compound, the ED50 – broadly, the dose that gives a 50% effect, or the effect in half of the subjects – in the series on mice was determined as 2.09 mg/kg.

`Oc1cc(Cl)ccc1CCNCc1ccccc1O` [Cpd #131]: the EC50 is 2.4 nM on 5-HT2A receptor (setting [2]), 2.1 nM on 5-HT2A receptor (setting [3]) and 1.8 nM on 5-HT2C receptor. Further, the “5-HT2A BRET Eff %” value on 5-HT2A receptor (Table 2) came out at 93%. For the same compound, the “5-HT2B BRET EC50 (nM) / Eff %” value at 5-HT2B receptor (Table 2) was “Inactive”. Moreover, the “5-HT2C BRET Eff %” value on 5-HT2C receptor stood at 103%. Also, the IC50 in series [1] was determined as 1310 nM. In addition, the “IC50 (hERG)/EC50 (5-HT2A) ratio” value in series [1] stood at 624. The same compound registered an ED50 in the series on mice of 1.24 mg/kg.

Consider `CN(C)CCc1c[nH]c2cccc(OP(=O)(O)O)c12` [Psilocybin, psilocybin, reference compound], for which, in the series on mice, the 50% effect level (ED50) was put at a dose of 0.38 mg/kg.

As to `CN(C)CCc1c[nH]c2cccc(O)c12` [psilocin, reference compound], the “5-HT2A BRET Eff %” value on 5-HT2A receptor (Table 2) is reported as 82%. Moreover, the “5-HT2A Eff, %” value on 5-HT2A receptor (Table 3 panel) is recorded as 80%. Further, on 5-HT2B receptor (Table 2), the “5-HT2B BRET Eff %” value stood at 63%. Further, the “5-HT2B Eff, %” value at 5-HT2B receptor (Table 3 panel) is 32%. Moreover, the EC50 on 5-HT1A was 46.9 nM; on 5-HT1B, 14.3 nM; at 5-HT1D, 2.2 nM; on 5-HT1E it was 10.4 nM; on 5-HT4, 563 nM; at 5-HT5A, 349 nM. Further, the values for the EC50 at 5-HT6 (read-out: 5-HT6 EC50) and at 5-HT7 were 182 nM and 525 nM, respectively. At 5-HT1A (Table 3), the “5-HT1A Eff, %” value is on record as 93%. Further, the “5-HT1B Eff, %” value on 5-HT1B (Table 3) stood at 94%. Also, the “5-HT1D Eff, %” value on 5-HT1D (Table 3) worked out at 102%. Moreover, at 5-HT1E (Table 3), the “5-HT1E Eff, %” value was determined as 90%. Besides, on 5-HT1F, the “5-HT1F Eff, %” value came to 93%. Moreover, at 5-HT4 (Table 3), the “5-HT4 Eff, %” value turned out to be 81%. Besides, on 5-HT5A (Table 3), the “5-HT5A Eff, %” value is 48%. At 5-HT6, the “5-HT6 Eff, %” value amounted to 74%. Moreover, the “5-HT7 Eff, %” value on 5-HT7 (Table 3) is 86%.
